Laboratory results reported in patent US20230017045A1, “PYRIDINE AND PYRIMIDINE CARBOXYLATE HERBICIDES AND METHODS OF USE THEREOF” (Dow AgroSciences LLC, priority 2017, published 2023).
Where two headings read alike, the source gives them in different places.

Test system: test plant species
Test: Post-emergent herbicidal activity test (greenhouse, foliar spray, visual growth reduction)
Assay type: in vivo
Conditions: post-emergence, 336 h, 140 g ai/ha
How it was run: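 Plants grown in greenhouse (15 h photoperiod, 23-29° C day/22-28° C night) to first or second true leaf stage were sprayed overhead with compound in acetone/water/isopropanol/DMSO/crop oil/X-77 carrier at 187 L/ha. Injury was scored visually after 14 d on a 0-100% scale versus solvent-blank and untreated controls.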

[1] = ECHCG: barnyardgrass (Echinochloa crus-galli), 14 days after application, read-out: Visual Growth Reduction (%) 14 Days After Application, ECHCG
[2] = IPOHE: ivy-leaf morning glory (Ipomoea hederacea), 14 days after application, read-out: Visual Growth Reduction (%) 14 Days After Application, IPOHE
[3] = KCHSC: kochia (Bassia scoparia), 14 days after application, read-out: Visual Growth Reduction (%) 14 Days After Application, KCHSC
[4] = ORYSA: rice (Oryza sativa), 14 days after application, read-out: Visual Growth Reduction (%) 14 Days After Application, ORYSA
[5] = SETFA: giant foxtail (Setaria faberi), 14 days after application, read-out: Visual Growth Reduction (%) 14 Days After Application, SETFA
[6] = SORVU: grain sorghum (Sorghum vulgare), 14 days after application, read-out: Visual Growth Reduction (%) 14 Days After Application, SORVU
[7] = STEME: common chickweed (Stellaria media), 14 days after application, read-out: Visual Growth Reduction (%) 14 Days After Application, STEME
[8] = TRZAS: wheat, spring (Triticum aestivum), 14 days after application, read-out: Visual Growth Reduction (%) 14 Days After Application, TRZAS
[9] = blackgrass (Alopecurus myosuroides), 14 Days After Application, read-out: Visual Growth Reduction (%) ALOMY
[10] = canada thistle (Cirsium arvense), 14 Days After Application, read-out: Visual Growth Reduction (%) CIRAR
[11] = crabgrass (Digitaria sanguinalis), 14 Days After Application, read-out: Visual Growth Reduction (%) DIGSA
[12] = lambsquarters (Chenopodium album), 14 Days After Application, read-out: Visual Growth Reduction (%) CHEAL
[13] = redroot pigweed (Amaranthus retroflexus), 14 Days After Application, read-out: Visual Growth Reduction (%) AMARE
[14] = wild oat (Avena fatua), 14 Days After Application, read-out: Visual Growth Reduction (%) AVEFA
[15] = yellow nutsedge (Cyperus esculentus), 14 Days After Application, read-out: Visual Growth Reduction (%) CYPES
[16] = ALOMY: blackgrass (Alopecurus myosuroides), 14 days after application, read-out: Visual Growth Reduction (%) 14 Days After Application, ALOMY
[17] = AMARE: redroot pigweed (Amaranthus retroflexus), 14 days after application, read-out: Visual Growth Reduction (%) 14 Days After Application, AMARE
[18] = AVEFA: wild oat (Avena fatua), 14 days after application, read-out: Visual Growth Reduction (%) 14 Days After Application, AVEFA
[19] = CHEAL: lambsquarters (Chenopodium album), 14 days after application, read-out: Visual Growth Reduction (%) 14 Days After Application, CHEAL
[20] = CIRAR: canada thistle (Cirsium arvense), 14 days after application, read-out: Visual Growth Reduction (%) 14 Days After Application, CIRAR
[21] = CYPES: yellow nutsedge (Cyperus esculentus), 14 days after application, read-out: Visual Growth Reduction (%) 14 Days After Application, CYPES
[22] = DIGSA: crabgrass (Digitaria sanguinalis), 14 days after application, read-out: Visual Growth Reduction (%) 14 Days After Application, DIGSA

| Compound | pest or weed control at 140 g/ha [1] [%] | pest or weed control at 140 g/ha [2] [%] | pest or weed control at 140 g/ha [3] [%] | pest or weed control at 140 g/ha [4] [%] | pest or weed control at 140 g/ha [5] [%] | pest or weed control at 140 g/ha [6] [%] | pest or weed control at 140 g/ha [7] [%] | pest or weed control at 140 g/ha [8] [%] | pest or weed control at 140 g/ha [9] [%] | pest or weed control at 140 g/ha [10] [%] | pest or weed control at 140 g/ha [11] [%] | pest or weed control at 140 g/ha [12] [%] | pest or weed control at 140 g/ha [13] [%] | pest or weed control at 140 g/ha [14] [%] | pest or weed control at 140 g/ha [15] [%] | pest or weed control at 140 g/ha [16] [%] | pest or weed control at 140 g/ha [17] [%] | pest or weed control at 140 g/ha [18] [%] | pest or weed control at 140 g/ha [19] [%] | pest or weed control at 140 g/ha [20] [%] | also measured |
| --- | --- | --- | --- | --- | --- | --- | --- | --- | --- | --- | --- | --- | --- | --- | --- | --- | --- | --- | --- | --- | --- |
| O=C(OCc1ccccc1C(F)(F)F)c1nc(-c2ccc(C(F)(F)F)cc2Cl)ccc1Cl [F380, 2-(Trifluoromethyl) benzyl 3-chloro-6-(2-chloro-4-(trifluoromethyl)phenyl)picolinate] | 75 to 84 | 95 to 100 | 75 to 84 | 0 to 29 | 95 to 100 | 95 to 100 | 0 to 29 | 60 to 74 | 45 to 59 | 85 to 94 | 95 to 100 | 95 to 100 | 95 to 100 | 60 to 74 | 0 to 29 |  |  |  |  |  |  |
| COC(=O)c1nc(-c2cc(F)c(Cl)c(OC)c2)ccc1Cl [F278, Methyl 3-chloro-6-(4-chloro-3-fluoro-5-methoxyphenyl) picolinate] | 0 to 29 | 0 to 29 | 0 to 29 | 0 to 29 | 0 to 29 | 0 to 29 | 0 to 29 | 0 to 29 | 0 to 29 | 0 to 29 | 0 to 29 | 0 to 29 | 0 to 29 | 0 to 29 | 0 to 29 |  |  |  |  |  |  |
| COC(=O)c1nc(-c2cc3c(cc2Cl)OCO3)ccc1Cl [F144, Methyl 3-chloro-6-(6-chlorobenzo[d] [1,3]dioxol-5-yl) picolinate] | 0 to 29 | 75 to 84 | 0 to 29 | 0 to 29 | 0 to 29 | 0 to 29 | 0 to 29 | 0 to 29 |  |  |  |  |  |  |  | 0 to 29 | 45 to 59 | 0 to 29 | 75 to 84 | 0 to 29 | pest or weed control at 140 g/ha [21]: 0 to 29%; pest or weed control at 140 g/ha [22]: 0 to 29% |
| COC(=O)c1nc(-c2ccc(OC)cc2)c(F)cc1Cl [F365, Methyl 3-chloro-5-fluoro-6-(4-methoxyphenyl) picolinate] | 0 to 29 | 0 to 29 | 0 to 29 | 0 to 29 | 0 to 29 | 0 to 29 | 0 to 29 | 0 to 29 | 0 to 29 | 0 to 29 | 0 to 29 | 0 to 29 | 0 to 29 | 0 to 29 | 0 to 29 |  |  |  |  |  |  |
| COC(=O)c1nc(-c2ccc(C(F)(F)F)c(N)c2Cl)ccc1Cl [F212, Methyl 6-(3-amino-2-chloro-4-(trifluoromethyl)phenyl)-3-chloropicolinate] | 75 to 84 | 95 to 100 | 60 to 74 | 0 to 29 | 60 to 74 | 60 to 74 | 0 to 29 | 0 to 29 | 0 to 29 | 85 to 94 | 30 to 44 | 95 to 100 | 60 to 74 | 0 to 29 | 0 to 29 |  |  |  |  |  |  |
| COC(=O)c1nc(-c2cc(Cl)c(C(F)(F)F)cc2C)ccc1Cl [F371, Methyl 3-chloro-6-(5-chloro-2-methyl-4-(trifluoromethyl)phenyl)picolinate] | 0 to 29 | 95 to 100 | 0 to 29 | 0 to 29 | 0 to 29 | 75 to 84 | 0 to 29 | 0 to 29 | 0 to 29 | 0 to 29 | 45 to 59 | 30 to 44 | 30 to 44 | 0 to 29 | 0 to 29 |  |  |  |  |  |  |
| COc1c(Cl)ccc(-c2nc(C(=O)O)c(Cl)c(Cl)c2F)c1F [F73, 3,4-Dichloro-6-(4-chloro-2-fluoro-3-methoxyphenyl)-5-fluoropicolinic acid] | 0 to 29 |  |  | 0 to 29 | 0 to 29 | 0 to 29 | 0 to 29 | 0 to 29 |  |  |  |  |  |  |  | 0 to 29 | 0 to 29 | 0 to 29 | 95 to 100 | 0 to 29 | pest or weed control at 140 g/ha [21]: 0 to 29%; pest or weed control at 140 g/ha [22]: 0 to 29% |
| COC(=O)c1nc(-c2ccc(Cl)c(F)c2Cl)ccc1Cl [F63, Methyl 3-chloro-6-(2,4-dichloro-3-fluorophenyl) picolinate] |  | 95 to 100 | 60 to 74 | 0 to 29 | 75 to 84 | 85 to 94 | 0 to 29 |  |  |  |  |  |  |  |  | 0 to 29 | 95 to 100 | 0 to 29 | 95 to 100 | 85 to 94 | pest or weed control at 140 g/ha [21]: 0 to 29%; pest or weed control at 140 g/ha [22]: 85 to 94% |
| N#Cc1cc(-c2nc(C(=O)O)c(Cl)cc2F)c(Cl)cc1C(F)(F)F [F329, 3-Chloro-6-(2-chloro-5-cyano-4-(trifluoromethyl)phenyl)-5-fluoropicolinic acid] | 60 to 74 | 95 to 100 | 60 to 74 | 0 to 29 | 85 to 94 | 75 to 84 | 0 to 29 | 45 to 59 | 0 to 29 | 85 to 94 | 75 to 84 | 75 to 84 | 60 to 74 | 60 to 74 | 0 to 29 |  |  |  |  |  |  |
| COC(=O)c1nc(-c2cc3nonc3cc2Cl)ccc1Cl [F261, Methyl 3-chloro-6-(6-chlorobenzo[c][1,2,5]oxadiazol-5-yl)picolinate] | 0 to 29 | 75 to 84 | 0 to 29 | 0 to 29 | 0 to 29 | 0 to 29 | 0 to 29 | 0 to 29 | 0 to 29 | 30 to 44 | 60 to 74 | 60 to 74 | 0 to 29 | 0 to 29 | 0 to 29 |  |  |  |  |  |  |
